Measurements as given in ChEMBL document CHEMBL3608278 (J Med Chem, 2015).

How the values were obtained:
[1] = target: T1, Potassium voltage-gated channel subfamily A member 3 (Homo sapiens, UniProt P22001); format: cell-based, CHO-K1
[2] = target: T1, Potassium voltage-gated channel subfamily A member 3; design: species or system Blood
[3] = target: T1, Potassium voltage-gated channel subfamily A member 3; assay: cell-based; design: species or system Blood

T1 sequence (P22001 whole entry): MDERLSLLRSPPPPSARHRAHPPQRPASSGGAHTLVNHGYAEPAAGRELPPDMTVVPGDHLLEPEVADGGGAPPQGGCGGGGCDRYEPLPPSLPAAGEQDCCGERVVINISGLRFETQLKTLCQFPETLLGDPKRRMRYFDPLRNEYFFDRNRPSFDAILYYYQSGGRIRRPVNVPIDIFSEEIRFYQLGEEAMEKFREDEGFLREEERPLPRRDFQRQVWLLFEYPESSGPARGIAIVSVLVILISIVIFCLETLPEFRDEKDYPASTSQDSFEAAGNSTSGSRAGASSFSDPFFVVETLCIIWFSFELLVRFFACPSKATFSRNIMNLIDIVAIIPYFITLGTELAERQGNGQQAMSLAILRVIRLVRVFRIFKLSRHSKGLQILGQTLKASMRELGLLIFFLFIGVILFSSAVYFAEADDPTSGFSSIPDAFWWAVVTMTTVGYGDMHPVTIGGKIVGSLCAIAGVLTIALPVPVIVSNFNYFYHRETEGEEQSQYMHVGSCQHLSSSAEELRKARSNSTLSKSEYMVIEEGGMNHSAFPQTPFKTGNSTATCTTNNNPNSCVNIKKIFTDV

SMILES | IC50 [1] [nM] | IC50 [2] [nM] | IC50 [3] [nM]
CC[C@H](C)[C@@H]1NC(=O)[C@@H](NC(=O)[C@H](CO)NC(=O)[C@@H](N)CCCNC(=N)N)CSSC[C@@H](C(=O)O)NC(=O)[C@H]([C@@H](C)O)NC(=O)[C@H](CCCNC(=N)N)NC(=O)[C@@H]2CSSC[C@@H]3NC(=O)[C@H](CCC(N)=O)NC(=O)[C@H](Cc4ccccc4)NC(=O)[C@H](C)NC(=O)[C@H]([C@@H](C)O)NC(=O)[C@H](CSSC[C@H](NC(=O)[C@H](Cc4ccccc4)NC(=O)[C@H](CO)NC(=O)[C@H](CC(C)C)NC(=O)[C@H](CCCNC(=N)N)NC(=O)[C@H](Cc4ccc(O)cc4)NC(=O)[C@H](CCCCN)NC(=O)[C@H](CCSC)NC(=O)[C@H](CO)NC(=O)[C@H](Cc4cnc[nH]4)NC(=O)[C@H](CCCCN)NC3=O)C(=O)N[C@@H](CCCNC(=N)N)C(=O)N[C@@H](CCCCN)C(=O)N[C@@H]([C@@H](C)O)C(=O)N2)NC(=O)[C@H](CCCNC(=N)N)NC(=O)[C@H](CO)NC(=O)[C@H](CCCCN)NC(=O)[C@@H]2CCCN2C(=O)[C@H]([C@@H](C)CC)NC(=O)[C@H]([C@@H](C)O)NC(=O)[C@H](CC(=O)O)NC1=O | 0.221 | 0.223 | 0.089
CC[C@H](C)[C@@H]1NC(=O)[C@@H](NC(=O)[C@H](CO)NC(=O)[C@@H](N)CCCNC(=N)N)CSSC[C@@H](C(=O)O)NC(=O)[C@H]([C@@H](C)O)NC(=O)CNC(=O)[C@@H]2CSSC[C@@H]3NC(=O)[C@H](CCC(N)=O)NC(=O)[C@H](Cc4ccccc4)NC(=O)[C@H](C)NC(=O)[C@H]([C@@H](C)O)NC(=O)[C@H](CSSC[C@H](NC(=O)[C@H](Cc4ccccc4)NC(=O)[C@H](CO)NC(=O)[C@H](CC(C)C)NC(=O)[C@H](CCCNC(=N)N)NC(=O)[C@H](Cc4ccc(O)cc4)NC(=O)[C@H](CCCCN)NC(=O)[C@H](CCSC)NC(=O)[C@H](CO)NC(=O)[C@H](Cc4cnc[nH]4)NC(=O)[C@H](CCCCN)NC3=O)C(=O)N[C@@H](CCCNC(=N)N)C(=O)N[C@@H](CCCCN)C(=O)N[C@@H]([C@@H](C)O)C(=O)N2)NC(=O)[C@H](CCCNC(=N)N)NC(=O)[C@H](CO)NC(=O)[C@H](CCCCN)NC(=O)[C@@H]2CCCN2C(=O)[C@H]([C@@H](C)CC)NC(=O)[C@H]([C@@H](C)O)NC(=O)[C@H](CCCNC(=N)N)NC1=O | > 3.33 | 91.7 | 40.5
CC[C@H](C)[C@@H]1NC(=O)[C@@H](NC(=O)[C@H](CO)NC(=O)[C@@H](N)CCCNC(=N)N)CSSC[C@@H](C(=O)O)NC(=O)[C@H]([C@@H](C)O)NC(=O)CNC(=O)[C@@H]2CSSC[C@@H]3NC(=O)[C@H](CCC(=O)O)NC(=O)[C@H](Cc4ccccc4)NC(=O)[C@H](C)NC(=O)[C@H]([C@@H](C)O)NC(=O)[C@H](CSSC[C@H](NC(=O)[C@H](Cc4ccccc4)NC(=O)[C@H](CO)NC(=O)[C@H](CC(C)C)NC(=O)[C@H](CCCNC(=N)N)NC(=O)[C@H](Cc4ccc(O)cc4)NC(=O)[C@H](CCCCN)NC(=O)[C@H](CCSC)NC(=O)[C@H](CO)NC(=O)[C@H](Cc4cnc[nH]4)NC(=O)[C@H](CCCCN)NC3=O)C(=O)N[C@@H](CCCNC(=N)N)C(=O)N[C@@H](CCCCN)C(=O)N[C@@H]([C@@H](C)O)C(=O)N2)NC(=O)[C@H](CCCNC(=N)N)NC(=O)[C@H](CO)NC(=O)[C@H](CCCCN)NC(=O)[C@@H]2CCCN2C(=O)[C@H]([C@@H](C)CC)NC(=O)[C@H]([C@@H](C)O)NC(=O)[C@H](CC(=O)O)NC1=O | 0.197 | 0.373 | 0.352
CC[C@H](C)[C@@H]1NC(=O)[C@@H](NC(=O)[C@H](CO)NC(=O)[C@@H](N)CCCNC(=N)N)CSSC[C@@H](C(=O)O)NC(=O)[C@H]([C@@H](C)O)NC(=O)CNC(=O)[C@@H]2CSSC[C@@H]3NC(=O)[C@H](CCC(N)=O)NC(=O)[C@H](Cc4ccccc4)NC(=O)[C@H](C)NC(=O)[C@H](CCC(=O)O)NC(=O)[C@H](CSSC[C@H](NC(=O)[C@H](Cc4ccccc4)NC(=O)[C@H](CO)NC(=O)[C@H](CC(C)C)NC(=O)[C@H](CCCNC(=N)N)NC(=O)[C@H](Cc4ccc(O)cc4)NC(=O)[C@H](CCCCN)NC(=O)[C@H](CCSC)NC(=O)[C@H](CO)NC(=O)[C@H](Cc4cnc[nH]4)NC(=O)[C@H](CCCCN)NC3=O)C(=O)N[C@@H](CCCNC(=N)N)C(=O)N[C@@H](CCCCN)C(=O)N[C@@H]([C@@H](C)O)C(=O)N2)NC(=O)[C@H](CCCNC(=N)N)NC(=O)[C@H](CO)NC(=O)[C@H](CCCCN)NC(=O)[C@@H]2CCCN2C(=O)[C@H]([C@@H](C)CC)NC(=O)[C@H]([C@@H](C)O)NC(=O)[C@H](CC(=O)O)NC1=O | 0.152 | 1.1 | 0.785
CC[C@H](C)[C@@H]1NC(=O)[C@@H](NC(=O)[C@H](CO)NC(=O)[C@@H](N)CCCNC(=N)N)CSSC[C@@H](C(=O)O)NC(=O)[C@H]([C@@H](C)O)NC(=O)CNC(=O)[C@@H]2CSSC[C@@H]3NC(=O)[C@H](CCC(N)=O)NC(=O)[C@H](Cc4ccccc4)NC(=O)[C@H](C)NC(=O)[C@H]([C@@H](C)O)NC(=O)[C@H](CSSC[C@H](NC(=O)[C@H](Cc4ccccc4)NC(=O)[C@H](CO)NC(=O)[C@H](CC(C)C)NC(=O)[C@H](CCCNC(=N)N)NC(=O)[C@H](Cc4ccc(O)cc4)NC(=O)[C@H](CCCCN)NC(=O)[C@H](CCSC)NC(=O)[C@H](CO)NC(=O)[C@H](Cc4cnc[nH]4)NC(=O)[C@H](CCCCN)NC3=O)C(=O)N[C@@H](CCCNC(=N)N)C(=O)N[C@@H](CCCCN)C(=O)N[C@@H]([C@@H](C)O)C(=O)N2)NC(=O)[C@H](CCCNC(=N)N)NC(=O)[C@H](CO)NC(=O)[C@H](CCCCN)NC(=O)[C@@H]2CCCN2C(=O)[C@H]([C@@H](C)CC)NC(=O)[C@H]([C@@H](C)O)NC(=O)[C@H](CCCCN)NC1=O | > 3.33 | > 100 | > 100
CC[C@H](C)[C@@H]1NC(=O)[C@@H](NC(=O)[C@H](CO)NC(=O)[C@@H](N)CCCNC(=N)N)CSSC[C@@H](C(=O)O)NC(=O)[C@H](CCCNC(=N)N)NC(=O)CNC(=O)[C@@H]2CSSC[C@@H]3NC(=O)[C@H](CCC(N)=O)NC(=O)[C@H](Cc4ccccc4)NC(=O)[C@H](C)NC(=O)[C@H]([C@@H](C)O)NC(=O)[C@H](CSSC[C@H](NC(=O)[C@H](Cc4ccccc4)NC(=O)[C@H](CO)NC(=O)[C@H](CC(C)C)NC(=O)[C@H](CCCNC(=N)N)NC(=O)[C@H](Cc4ccc(O)cc4)NC(=O)[C@H](CCCCN)NC(=O)[C@H](CCSC)NC(=O)[C@H](CO)NC(=O)[C@H](Cc4cnc[nH]4)NC(=O)[C@H](CCCCN)NC3=O)C(=O)N[C@@H](CCCNC(=N)N)C(=O)N[C@@H](CCCCN)C(=O)N[C@@H]([C@@H](C)O)C(=O)N2)NC(=O)[C@H](CCCNC(=N)N)NC(=O)[C@H](CO)NC(=O)[C@H](CCCCN)NC(=O)[C@@H]2CCCN2C(=O)[C@H]([C@@H](C)CC)NC(=O)[C@H]([C@@H](C)O)NC(=O)[C@H](CC(=O)O)NC1=O | 0.191 | 0.475 | 0.357
